Experimental data from patent publication US8501752B2, “Methods for treating cancer and other pathological proliferating disorders by inhibiting mitosis using pyrrolo[2,3-d]pyrimidines” (Duquesne University of the Holy Ghost, priority 2005, dated 2013).
Entries after “also recorded” stand apart in the source; their conditions may differ. Like-named read-outs stand apart in the source and are kept apart here.

Legend:
[1] = test system: M14; experiment: NCI IVCLSP growth inhibition (SRB), M14; format: cell-based, human; settings: 48 h drug incubation
Protocol: (§1) FIG. 1 presents nine compounds that were tested using the National Cancer Institute (NCI) 60 human tumor cell lines. The cells lines, which represent leukemia, melanoma, and cancers of the lung, colon, brain, ovary, breast, prostate, and kidney, are listed in Table 1.
(§2) Compounds 1-9 were tested according to the NCI Developmental Therapeutics Program (DTP) In Vitro Cell Line Screening Project (IVCLSP). […] Methodology for testing under the IVCLSP is as follows: The human tumor cell lines of the cancer screening panel are grown in RPMI 1640 medium containing 5% fetal bovine serum and 2 mM L-glutamine. […]
(§3) Following drug addition, the plates are incubated for an additional 48 h at 37° C., 5% CO2, 95% air, and 100% relative humidity. […] Bound stain is subsequently solubilized with 10 mM trizma base, and the absorbance is read on an automated plate reader at a wavelength of 515 nm. […] Using the seven absorbance measurements [time zero, (Tz), control growth, (C), and test growth in the presence of drug at the five concentration levels (Ti)], the percentage growth is calculated at each of the drug concentrations levels. Percentage growth inhibition is calculated as: [(Ti−Tz)/(C−Tz)]×100 for concentrations for which Ti>/=Tz [(Ti−Tz)/Tz]×100 for concentrations for which Ti<Tz.
(§4) Three dose response parameters are calculated for each experimental agent. […]

[2] = test system: HL-60(TB); experiment: NCI IVCLSP growth inhibition (SRB), HL-60(TB); format: cell-based, human; settings: 48 h drug incubation
Protocol: as §1, §2, §3, §4

[3] = test system: T24 human bladder carcinoma cells; experiment: Cytotoxicity, T24 cells; format: cell-based; settings: mean ± SEM for 3 experiments
[4] = test system: HOP-92; experiment: NCI IVCLSP growth inhibition (SRB), HOP-92; format: cell-based, human; settings: 48 h drug incubation
Protocol: as §1, §2, §3, §4

[5] = test system: SR; experiment: NCI IVCLSP growth inhibition (SRB), SR; format: cell-based, human; settings: 48 h drug incubation
Protocol: as §1, §2, §3, §4

[6] = test system: KM12; experiment: NCI IVCLSP growth inhibition (SRB), KM12; format: cell-based, human; settings: 48 h drug incubation
Protocol: as §1, §2, §3, §4

[7] = test system: SN12C; experiment: NCI IVCLSP growth inhibition (SRB), SN12C; format: cell-based, human; settings: 48 h drug incubation
Protocol: as §1, §2, §3, §4

[8] = test system: OVCAR-8; experiment: NCI IVCLSP growth inhibition (SRB), OVCAR-8; format: cell-based, human; settings: 48 h drug incubation
Protocol: as §1, §2, §3, §4

[9] = test system: HCC-2998; experiment: NCI IVCLSP growth inhibition (SRB), HCC-2998; format: cell-based, human; settings: 48 h drug incubation
Protocol: as §1, §2, §3, §4

[10] = test system: MCF-7/VP cells; experiment: Cytotoxicity, MCF-7/VP cells that overexpress MRP1; settings: for IC50: mean ± SEM for 3 experiments
From the text: (§5) These cell lines are resistant to anticancer drugs due to overexpression of the transport proteins P-glycoprotein or MRP1.

[11] = test system: NCI/ADR cells; experiment: Cytotoxicity, NCI/ADR cells that overexpress P-glycoprotein; settings: for IC50: mean ± SEM for 3 experiments
From the text: as §5

[12] = test system: PC-3; experiment: NCI IVCLSP growth inhibition (SRB), PC-3; format: cell-based, human; settings: 48 h drug incubation
Protocol: as §1, §2, §3, §4

[13] = test system: NCI/ADR-RES; experiment: NCI IVCLSP growth inhibition (SRB), NCI/ADR-RES; format: cell-based, human; settings: 48 h drug incubation
Protocol: as §1, §2, §3, §4

[14] = test system: UACC-62; experiment: NCI IVCLSP growth inhibition (SRB), UACC-62; format: cell-based, human; settings: 48 h drug incubation
Protocol: as §1, §2, §3, §4

[15] = test system: RXF 393; experiment: NCI IVCLSP growth inhibition (SRB), RXF 393; format: cell-based, human; settings: 48 h drug incubation
Protocol: as §1, §2, §3, §4

[16] = test system: HCT-15; experiment: NCI IVCLSP growth inhibition (SRB), HCT-15; format: cell-based, human; settings: 48 h drug incubation
Protocol: as §1, §2, §3, §4

[17] = test system: SK-OV-3; experiment: NCI IVCLSP growth inhibition (SRB), SK-OV-3; format: cell-based, human; settings: 48 h drug incubation
Protocol: as §1, §2, §3, §4

[18] = test system: OVCAR-3; experiment: NCI IVCLSP growth inhibition (SRB), OVCAR-3; format: cell-based, human; settings: 48 h drug incubation
Protocol: as §1, §2, §3, §4

[19] = test system: NCI 60 human tumor cell lines; experiment: NCI IVCLSP growth inhibition, whole panel (text summaries); format: cell-based
Protocol: as §1
Compounds 1-9 were tested according to the NCI Developmental Therapeutics Program (DTP) In Vitro Cell Line Screening Project (IVCLSP). […] Methodology for testing under the IVCLSP is as follows: The human tumor cell lines of the cancer screening panel are grown in RPMI 1640 medium containing 5% fetal bovine serum and 2 mM L-glutamine. For a typical screening experiment, cells are inoculated into 96 well microtiter plates in 100 μL at plating densities ranging from 5,000 to 40,000 cells/well depending on the doubling time of individual cell lines. After cell inoculation, the microtiter plates are incubated at 37° C., 5% CO2, 95% air and 100% relative humidity for 24 h prior to addition of experimental drugs.
After 24 h, two plates of each cell line are fixed in situ with TCA, to represent a measurement of the cell population for each cell line at the time of drug addition (Tz). Experimental drugs are solubilized in dimethyl sulfoxide at 400-fold the desired final maximum test concentration and stored frozen prior to use. At the time of drug addition, an aliquot of frozen concentrate is thawed and diluted to twice the desired final maximum test concentration with complete medium containing 50 μg/ml gentamicin. Additional four, 10-fold or ½ log serial dilutions are made to provide a total of five drug concentrations plus control. Aliquots of 100 μl of these different drug dilutions are added to the appropriate microtiter wells already containing 100 μl of medium, resulting in the required final drug concentrations.
Following drug addition, the plates are incubated for an additional 48 h at 37° C., 5% CO2, 95% air, and 100% relative humidity. For adherent cells, the assay is terminated by the addition of cold TCA. Cells are fixed in situ by the gentle addition of 50 μl of cold 50% (w/v) TCA (final concentration, 10% TCA) and incubated for 60 minutes at 4° C. The supernatant is discarded, and the plates are washed five times with tap water and air dried. Sulforhodamine B (SRB) solution (100 μl) at 0.4% (w/v) in 1% acetic acid is added to each well, and plates are incubated for 10 minutes at room temperature. After staining, unbound dye is removed by washing five times with 1% acetic acid and the plates are air dried. Bound stain is subsequently solubilized with 10 mM trizma base, and the absorbance is read on an automated plate reader at a wavelength of 515 nm. For suspension cells, the methodology is the same except that the assay is terminated by fixing settled cells at the bottom of the wells by gently adding 50 μl of 80% TCA (final concentration, 16% TCA). Using the seven absorbance measurements [time zero, (Tz), control growth, (C), and test growth in the presence of drug at the five concentration levels (Ti)], the percentage growth is calculated at each of the drug concentrations levels. Percentage growth inhibition is calculated as: [(Ti−Tz)/(C−Tz)]×100 for concentrations for which Ti>/=Tz [(Ti−Tz)/Tz]×100 for concentrations for which Ti<Tz.
Three dose response parameters are calculated for each experimental agent. […] The drug concentration resulting in total growth inhibition (TGI) is calculated from Ti=Tz. […]

[20] = test system: TKIO; experiment: NCI IVCLSP growth inhibition (SRB), TKIO; format: cell-based, human; settings: 48 h drug incubation
Protocol: as §1, §2, §3, §4

[21] = test system: MDA-MB-231/ATCC; experiment: NCI IVCLSP growth inhibition (SRB), MDA-MB-231/ATCC; format: cell-based, human; settings: 48 h drug incubation
Protocol: as §1, §2, §3, §4

[22] = test system: SNB-75; experiment: NCI IVCLSP growth inhibition (SRB), SNB-75; format: cell-based, human; settings: 48 h drug incubation
Protocol: as §1, §2, §3, §4

[23] = test system: A549/ATCC; experiment: NCI IVCLSP growth inhibition (SRB), A549/ATCC; format: cell-based, human; settings: 48 h drug incubation
Protocol: as §1, §2, §3, §4

COc1cc(CCc2cn(Cc3ccccc3)c3nc(N)nc(C)c23)cc(OC)c1OC [Compound 1]
GI50 [1]: 77 nM
GI50 [2]: 64.7 nM
IC50 [3]: 280 ± 100 nM
GI50 [4]: 467 nM
GI50 [5]: 31.4 nM
GI50 [6]: 194 nM
GI50 [7]: 537 nM
GI50 [8]: 364 nM
GI50 [9]: 317 nM
Resistance (MCF-7/VP relative to MCF-7) ([10]; MRP1): 0.6
IC50 ([10]; read-out: Cytotoxicity IC50, MCF-7/VP): 250 ± 160 nM
IC50 ([10]; read-out: drug sensitivity (IC50), MCF-7/VP, Table 4, MRP1 overexpressing): 180 ± 10 nM
Resistance (NCI/ADR relative to MCF-7) ([11]; P-glycoprotein): 1.3
IC50 ([11]; read-out: Cytotoxicity IC50, NCI/ADR): 250 ± 120 nM
IC50 ([11]; read-out: drug sensitivity (IC50), NCI/ADR, Table 4, P-glycoprotein overexpressing): 350 ± 40 nM
GI50 [12]: 47.9 nM
GI50 [13]: 145 nM
GI50 [14]: 39.9 nM
GI50 [15]: 134 nM
GI50 [16]: 127 nM
GI50 [17]: 506 nM
GI50 [18]: 28.8 nM
GI50 values, level across the tumor cell lines (in words) ([19]; NCI 60 tumor panel): nanomolar to submicromolar levels; also recorded: single or two digit nanomolar levels against 16 tumor cell lines; also recorded: submicromolar levels against 40 tumor cell lines; also recorded: micromolar levels against 3 tumor cell lines
average GI50 ([19]; requirement for a microtubule-targeting agent, satisfied): one μM or less
GI50 [20]: 961 nM
GI50 [21]: 595 nM
GI50 [22]: 358 nM
GI50 [23]: 173 nM
